Target: DYRK1A (Homo sapiens, UniProt Q13627)
Assay: Determination of IC50 values against DYRK1a
Format: biochemical
Conditions: average of duplicate; 10 concentrations 100 μM to 0.003 μM; read-out: IC 50 against DYRK1a
Protocol: The kinase assay was carried out using Multidrop 384's at room temperature in a total assay volume of 25.5 μl. To plates containing 0.5 μl of compounds, DMSO controls or acid blanks, 15 μl of an enzyme mix containing the DYRK1a enzyme and peptide/protein substrate in buffer was added. Compounds were pre-incubated in the presence of the enzyme and peptide/protein substrate for 5 minutes before initiation of the reaction by addition of 10 μl of ATP (final concentration selected for each kinase at 5, 20 or 50 μM). Assays were carried out for 30 minutes at room temperature before termination by the addition of 5 μl orthophosphoric acid. The assay plates were then harvested onto P81 Unifilter Plates by a Packard Harvester (wash buffer is 50 mM orthophosphoric acid) and dried in air. The dry Unifilter plates were then sealed by the addition of MicroScint O and counted in Packard Topcount NXT scintillation counters.

SMILES	IC50 [µM]
CC(=O)Nc1nc2cc(O)ccc2s1 [Compound 01-66, N-(5-hydroxybenzo[d]thiazol-2-yl)acetamide]	0.8
CC(=O)Nc1nc2ccc(O)cc2s1 [Compound 01-71]	28.1
CC(=O)Nc1nc2ccc(C(F)(F)F)cc2s1 [Compound 01-90]	1.1
CC(=O)Nc1nc2ccc(C#N)cc2s1 [Compound 01-94]	1.3
COc1ccc2sc(NC(C)=O)nc2c1 [Compound 03-21]	0.4
CC(=O)Nc1nc2cc(C(F)(F)F)ccc2s1 [Compound 03-73]	26.5
CC(=O)Nc1nc2cc(F)ccc2s1 [Compound 03-77]	3.9
CC(=O)Nc1nc2ccc(F)cc2s1 [Compound 03-94]	23.6
CC(=O)Nc1nc2ccc([N+](=O)[O-])cc2s1 [Compound 13-10]	0.7

Source: patent US10231954B2, “Neurodegenerative therapies” (LYTIX BIOPHARMA AS, priority 2014, dated 2019)
